Legend:
[1] = ROS generation rate / quantum yield, DPBF bleaching in methanol; assay type: physicochemical; conditions: for φROS (ROS generation quantum yield): in methanol, DPBF trap, 450–470 nm illumination, riboflavin as reference
Text: The ROS generation rate was estimated using the spectrophotometric method, based on the absorption changes of 1,3-diphenylisobenzofuran (DPBF, Sigma Aldrich, Germany) in methanol solution. Irreversible oxidation of DPBF by singlet oxygen results in peroxide formation, and DPBF bleaching. When light of 400–450 nm was used as actinic, DPBF bleaching occurred without any photosensitizer (PS) in solution. Therefore, to study photosensitized ROS generation, we used a white MCWHLP1 LED (Thorlabs, USA) with filters to limit the radiation to the 450–470 nm range (5.5 mW/cm^2).
Spectrophotometric measurements were performed in a Qpod 2e (Quantum Northwest, USA) thermostated cuvette holder at 25 °C with magnetic stirring (500 rpm). Absorption spectra were recorded using a MayaPro spectrophotometer (Ocean Optics, USA) and a stabilized white light source with a SLS201L tungsten lamp (Thorlabs, USA). Illumination was uniform over the entire volume of the cuvette, to prevent artifacts associated with the diffusion of non-reacted components into the illuminated volume of the cuvette. In this case, the rate of irreversible bleaching of DPBF (412 nm) was the same under both continuous and pulsed irradiation with equal total irradiation time. Illumination was performed in a pulsed mode (Fig. S5A), with 1 s of illumination followed by 5 s of dark adaptation, during which the absorption spectrum of the PS-DPBF solution was recorded. Data processing was performed as previously described ([Gvozdev et al., 2020]).

[2] = test system: feline infectious peritonitis virus (FIPV); assay type: cell-based, feline coronavirus (FCoV); conditions: 0–10 µM
SARS-CoV-2 = experiment: Photodynamic inactivation of SARS-CoV-2 virions; assay type: cell-based; conditions: for antiviral activity after blue light irradiation of virus-compound mixture: 465–480 nm, 30 mW/cm^2, 10 min, then 60 min at 37 °C in the dark, plaque assay
Experimental: Virus in DMEM (titer of 10^5 PFU/mL) was mixed with the compounds (0–10 µM) in a microtiter plate, in triplicate, and irradiated for 10 min at RT with LEDs (465–480 nm) having an approximate power density of 30 mW/cm^2 (device description in supplement). As a negative control, virus was incubated for 10 min in the dark at RT. Subsequently, both irradiated and non-irradiated virus samples were incubated in the dark at 37 °C for 60 min. All manipulation with the samples before and after this incubation, i.e., mixing the compound with the virus, pipetting into a microtiter plate, etc., were performed in daylight. Viral titers were determined by plaque assays (performed also in daylight) and expressed as PFU/mL, as previously described ([Stefanik et al., 2021]). To eliminate the influence of daylight on compound activity, the whole experiment, including all manipulation with samples, was performed in a dark room under red light. The virus sample was mixed with the indicated compounds at concentrations from 0 to 10 μM or 100 μM, incubated for 60 min at 37 °C and virus viability was evaluated using a plaque assay (Fig. 9A).

[3] = test system: SARS-CoV-2 (Wuhan strain); experiment: Viral titer inhibition assay, SARS-CoV-2 in CaCo-2 cells; assay type: cell-based; conditions: 0–10 µM
Vero cells [4] = experiment: Light-induced cytotoxicity in Vero cells; assay type: cell-based, African Green Monkey; conditions: 0–10 µM, 465–480 nm 10 min, then 24 h in the dark
Experimental: To determine the light-induced cytotoxicity of the tested compounds, Vero cells were cultured for 24 h in 96-well plates to form a confluent monolayer, and then were treated with the tested compounds at concentrations of 0 to 10 µM. Then, the compound-treated cells were irradiated for 10 min at RT with LEDs (465–480 nm) having an approximate power density of 30 mW/cm^2 (device description in Fig. S7). As a negative control, compound-treated cells were incubated for 10 min in the dark at RT. Subsequently, both irradiated and non-irradiated cell monolayers were incubated in the dark at 37 °C for 24 h. Then, the cell culture medium was aspirated and the potential cytotoxicity of the tested perylene derivatives was determined based on cell viability using Cell Counting Kit-8 (Dojindo Molecular Technologies, Munich, Germany) according to the manufacturer's instructions.

[5] = ROS generation measurement with DMA trap in DMSO; assay type: physicochemical; conditions: for ROS generation, DMA trap, under blue light: 465–480 nm, 30 mW/cm^2, 10 min
Experimental: ROS generation was also estimated using 9,10-dimethylanthracene (DMA), another specific fluorescent singlet oxygen trap, which forms nonfluorescent 9,10-dimethylanthracene endoperoxide after ROS-mediated DMA oxidation. Compounds (0, 0.1, 1, and 10 µM) in DMSO were mixed with DMA (0.5 µM), and these solutions were irradiated for 10 min at room temperature (RT) with light-emitting diodes (LED, 465–480 nm) having approximate power density of 30 mW/cm^2 (device description in Fig. S7). DMA fluorescence intensity was measured at ex/em wavelengths of 370/432 nm in the presence or absence of α-tocopherol (3 µg/mL) as an antioxidant. Singlet oxygen generation was accompanied by a decreased fluorescence signal of the DMA probe ([Zeng et al., 2020]).

CaCo-2 cells = experiment: Cytotoxicity assay (Cell Counting Kit-8) in CaCo-2 cells; assay type: cell-based, human; conditions: up to 10 µM
Experimental: (§1) To determine the overall cytotoxicity of the tested compounds, Vero cells were cultured for 24 h in 96-well plates to form a confluent monolayer, and then were treated with the tested compounds at concentrations of 2 and 10 µM. After 48 h of cultivation in the dark at 37 °C under 5% CO2, the cell culture medium was aspirated. The potential cytotoxicity of the tested perylene derivatives was determined based on cell viability using Cell Counting Kit-8 (Dojindo Molecular Technologies, Munich, Germany) according to the manufacturer's instructions. The cell viabilities of compound-treated Vero cells were compared with those of control DMSO-treated cells. We also used the above-described protocol to assess the cytotoxicity of the selected perylene antivirals, at concentrations ranging from 0 to 10 µM, in CaCo-2 and CRFK cells.

CRFK cells = experiment: Cytotoxicity assay (Cell Counting Kit-8) in CRFK cells; assay type: cell-based, Felis catus; conditions: up to 10 µM
Experimental: as §1

Vero cells [6] = experiment: Cytotoxicity assay (Cell Counting Kit-8) in Vero cells; assay type: cell-based, African Green Monkey; conditions: 10 µM, 48 h
Experimental: as §1

[7] = Fluorescence quantum yield determination; assay type: physicochemical; conditions: in DMSO, relative to rhodamin B
Experimental: The samples’ steady-state fluorescence characteristics were measured in L-format using a Chronos DFD Fluorescence spectrometer (ISS, USA) equipped with a 300 W Cermax xenon arc lamp (ISS, USA), a concave holographic grating monochromator, and a PMT detector. The required amount of each sample was diluted in DMSO and measured in a 1-cm quartz cuvette at a constant temperature of 25 °C. The resulting data were evaluated using Vinci software (ISS, USA) and correlated to the utilized optical configuration.
Absorption spectra were measured using a high-performance Specord S 600 diode spectrophotometer (Jena Analyst, DE). The required amount of each sample was diluted in DMSO, added to 1-cm quartz cuvette, and measured within the selected absorbance spectrum range, against pure DMSO as a blank, at a constant temperature of 25 °C. The results were evaluated using WinASPECT® software (Jena Analyst, DE).
Fluorescence quantum yield was determined following a previously described protocol ([Kozma et al., 2005]; [Magde et al., 1999]; [Williams et al., 1983]). The kinetics of the incorporation of compounds into liposome membrane models was determined using steady-state fluorescence spectroscopy at a constant excitation and emission wavelength, according to the corresponding sample excitation and emission maxima. We added 50 μL of LNP suspension to 0.1 mM of the analyte in PBS, and monitored the increase of fluorescence intensity over the time range from 0 to 1400s. The preparation and characterization of the liposomal suspension is described in the supporting information (Fig. S4).
1. Supplementary material and methods
1.1. Fluorescence quantum yield (QY) determination
The steady-state fluorescence and absorption data were used for quantum yield determination. QY was determined relative to a reference compound, rhodamin B. Absorbance in the range of 0.01–0.1 was used to calculate the QY. We plotted two calibration curves of integrated emission fluorescence intensity as a function of sample absorbance. […]

[8] = Spectrofluorometric analysis of interaction with liposomes; assay type: physicochemical; conditions: for penetration into liposomal membranes (in words): EPC/Chol 70/30 mol% liposomes
[9] = design: method as in Magde et al., 1999; conditions: Water; λ = 514 nm; ref Magde et al., 1999; cited from earlier work

| SMILES | φROS (ROS generation quantum yield) [1] | antiviral activity after blue light irradiation of virus-compound mixture (SARS-CoV-2) | effect of blue light irradiation on cytotoxicity (Vero cells [4]) | ROS generation, DMA trap, under blue light [5] | fluorescence quantum yield [7] | penetration into liposomal membranes (in words) ([8]; 10 µM in PBS) | further results |
| --- | --- | --- | --- | --- | --- | --- | --- |
| O=c1[nH]c(=O)n([C@H]2C[C@H](O)[C@@H](CO)O2)cc1C#Cc1ccc2c3cccc4cccc(c5cccc1c52)c43 [Compound 2, 5-(perylen-3-yl)ethynyl-2′-deoxy-uridine] | 20.9 ± 0.2% | low-nanomolar | dramatically increased | significant bleaching | – | – | replication of FIPV in CRFK cells [2]: potently suppressed the replication; antiviral effect under red light only (SARS-CoV-2; 100 µM, dark room, red light, 60 min at 37 °C): no antiviral effect; antiviral activity under red light only (SARS-CoV-2; up to 10 µM, dark room, red light, 60 min at 37 °C): completely disappeared; anti-SARS-CoV-2 activity in CaCo-2 cells [3]: sub-micromolar; ROS generation, DMA trap, in the dark or with α-tocopherol ([5]; 10 min, dark or α-tocopherol (3 µg/mL)): no/limited bleaching; tolerability by CaCo-2 cells (CaCo-2 cells): well-tolerated; tolerability by CRFK cells (CRFK cells): well-tolerated |
| CN(C)c1ccc(C#Cc2ccc3c4cccc5cccc(c6cccc2c63)c54)cc1 [Compound 14] | 7.1 ± 0.2% | viral titer decreased by less than an order of magnitude | no effect | minimal photodynamic activities | 8% | slow and very gradual | photodynamic activity (DPBF trap, in words) ([1]; methanol, 450–470 nm): minimal; cell viability (in words) (Vero cells [6]): moderately decreased cell viability; solubility in water (in words) [8]: poorly soluble in water; fluorescence intensity after mixing with liposomes ([8]; at 540 nm, 10 µM in PBS): 10^3 CPS |
| CCN(CC)c1ccc2c(-c3ccccc3C(=O)O)c3ccc(=[N+](CC)CC)cc-3oc2c1.[Cl-] [rhodamin B] | – | – | – | – | – | – | QYr (fluorescence quantum yield of reference) [9]: 31% |
| O=C(O)c1ccc(-c2ccc3c4cccc5cccc(c6cccc2c63)c54)s1 [Compound 16] | 59.0 ± 1.8% | – | – | – | 61% | penetrated the liposomal membranes very quickly and efficiently | steady-state fluorescence signal after mixing with liposomes ([8]; at 520 nm, after 1400 s, 10 µM in PBS): about 10^5 CPS |
